Series [1] can be described thus: log P by HPLC on reversed-phase (C18) columns, OECD Guideline 117. It is filed as physicochemical. Particulars: for chromatographic logP: reversed-phase (C18) HPLC column. As to the method:
The log P values were determined in accordance with OECD Guideline 117 (EC Directive 92/69/EEC) by HPLC (high-performance liquid chromatography) using reversed-phase (RP) columns (C18), by the following methods: [a] The LC-MS determination in the acidic range is carried out at pH 2.7 with 0.1% aqueous formic acid and acetonitrile (contains 0.1% formic acid) as eluents; linear gradient from 10% acetonitrile to 95% acetonitrile. [b] LC-MS determination in the neutral range is effected at pH 7.8 with 0.001 molar aqueous ammonium hydrogencarbonate solution and acetonitrile as eluents; linear gradient from 10% acetonitrile to 95% acetonitrile. Calibration is carried out using unbranched alkan-2-ones (having 3 to 16 carbon atoms) with known log P values (log P values determined on the basis of the retention times by linear interpolation between two successive alkanones).

The test system of series [2] is green peach aphid (Myzus persicae). The experiment in a line: Myzus persicae spray test (Chinese cabbage leaf discs). It is filed as in vivo. The note with it: application rate 500 g/ha, after 6 days, 100% = all aphids killed; for pest or weed control at 500 g/ha: Myzus persicae, foliar, 144 h, read-out: efficacy. Here is the method: Myzus persicae—Spray Test Solvent: 78 parts by weight of acetone • • 1.5 parts by weight of dimethylformamide Emulsifier: alkylaryl polyglycol ether To produce a suitable active ingredient formulation, 1 part by weight of active ingredient is dissolved with the specified parts by weight of solvent and made up with water containing an emulsifier concentration of 1000 ppm until the desired concentration is attained. To produce further test concentrations, the formulation is diluted with emulsifier-containing water. Discs of Chinese cabbage leaves (Brassica pekinensis) infested by all stages of the green peach aphid (Myzus persicae) are sprayed with an active ingredient formulation of the desired concentration. After 6 days, the efficacy in % is determined. 100% means that all the aphids have been killed; 0% means that no aphids have been killed.

Where [3] appears, read: neutral range, pH 7.8, 0.001 molar aqueous ammonium hydrogencarbonate and acetonitrile.
Where [4] appears, read: neutral range, pH 7.8, 0.001 molar aqueous ammonium hydrogencarbonate and acetonitrile, read-out: logP[b].
Setting [5] is: acidic range, pH 2.7, 0.1% aqueous formic acid and acetonitrile, read-out: LogP[a].
Where [6] appears, read: acidic range, pH 2.7, 0.1% aqueous formic acid and acetonitrile.

Like-named read-outs stand apart in the source and are kept apart here.

Take `CCSc1cccc(-c2cnc3nc(-c4cccnc4)sc3c2)c1` [Example 10]: the “logP[b]” value in series [1] (setting [3]) is on record as 3.36.
For the molecule `Brc1cnc2nc(-c3cccnc3)sc2c1` [I-a-1, 6-bromo-2-(pyridin-3-yl)[1,3]thiazolo[4,5-b]pyridine], the chromatographic logP in series [1] (setting [4]) was 1.95.
As for `Clc1cccc(-c2cnc3nc(-c4cccnc4)sc3c2)c1` [Example 7, 6-(3-Chlorophenyl)-2-(pyridin-3-yl)[1,3]thiazolo[4,5-b]pyridine], the pest or weed control at 500 g/ha in series [2] was found to be 100%. Further, the results for the chromatographic logP in series [1] (setting [5]) and in series [1] (setting [4]) were 2.98 and 3.01, respectively.
For `Cc1nn(-c2cnc3nc(-c4cccnc4)sc3c2)c(=O)n1C` [Example 30, 4,5-Dimethyl-2-[2-(pyridin-3-yl)[1,3]thiazolo[4,5-b]pyridin-6-yl]-2,4-dihydro-3H-1,2,4-triazol-3-one], in that order: 100%, 1.23 and 1.42.
Consider `c1ccc(Nc2cnc3nc(-c4cccnc4)sc3c2)cc1` [Example 24], for which, in series [1] (setting [6]), the “LogP[a]” value is 2.25. In addition, the “logP[b]” value in series [1] (setting [3]) was 2.27.
Regarding `CSc1cccc(-c2cnc3nc(-c4cccnc4)sc3c2)c1` [Example 9], in series [2], the efficacy turned out to be 100%. In addition, the “logP[b]” value in series [1] (setting [3]) is recorded as 2.96.
As to `CSCCNC(=O)c1cnc2nc(-c3cccnc3)sc2c1` [Example 52, N-[2-(Methylsulphanyl)ethyl]-2-(pyridin-3-yl)[1,3]thiazolo[4,5-b]pyridine-6-carboxamide], the chromatographic logP in series [1] (setting [5]) came to 1.39.
For the molecule `c1cncc(-c2nc3ncc(-n4cccn4)cc3s2)c1` [Example 26, 6-(1H-Pyrazol-1-yl)-2-(pyridin-3-yl)[1,3]thiazolo[4,5-b]pyridine], the pest or weed control at 500 g/ha in series [2] was determined as 90%. Moreover, the chromatographic logP in series [1] (setting [4]) turned out to be 1.62.
Turning to `O=C(Nc1cccc(SC(F)(F)F)c1)c1cnc2nc(-c3cncc(F)c3)sc2c1` [Example 57, 2-(5-Fluoropyridin-3-yl)-N-{3-[(trifluoromethyl)sulphanyl]phenyl}[1,3]thiazolo[4,5-b]pyridine-6-carboxamide], the chromatographic logP in series [1] (setting [5]) worked out at 3.53.
On to `Cc1cc(F)c(-c2cnc3nc(-c4cccnc4)sc3c2)cc1[S+]([O-])CC(F)(F)F` (stereo not drawn) [Example 23, 6-{2-Fluoro-4-methyl-5-[(2,2,2-trifluoroethyl)sulphinyl]phenyl}-2-(pyridin-3-yl)[1,3]thiazolo[4,5-b]pyridine], for which the pest or weed control at 500 g/ha in series [2] worked out at 90%. The chromatographic logP stood at 2.5 in series [1] (setting [5]) and 2.46 in series [1] (setting [4]).
The molecule `Clc1ccccc1-c1cnc2nc(-c3cccnc3)sc2c1` [Example 6] came in with an efficacy in series [2] of 100%. Moreover, the “LogP[a]” value in series [1] (setting [6]) came to 2.77. Further, the “logP[b]” value in series [1] (setting [3]) was found to be 2.78.
As to `Cc1cc(C)c([S+]([O-])CC(F)(F)F)cc1-c1cnc2nc(-c3cccnc3)sc2c1` (stereo not drawn) [Example 20, 6-{2,4-Dimethyl-5-[(2,2,2-trifluoroethyl)sulphinyl]phenyl}-2-(pyridin-3-yl)[1,3]thiazolo[4,5-b]pyridine], the pest or weed control at 500 g/ha in series [2] turned out to be 90%. Further, the results for the chromatographic logP in series [1] (setting [5]) and in series [1] (setting [4]) were 2.54 and 2.52, respectively.
On to `Cc1nn(-c2cnc3nc(-c4cccnc4)sc3c2)c(=S)n1C` [Example 31, 4,5-Dimethyl-2-[2-(pyridin-3-yl)[1,3]thiazolo[4,5-b]pyridin-6-yl]-2,4-dihydro-3H-1,2,4-triazole-3-thione], for which, in series [2], the pest or weed control at 500 g/ha is 90%. Also, the chromatographic logP in series [1] (setting [5]) was 0.97; in series [1] (setting [4]), 1.21.
Take `Cc1ccc(-c2cnc3nc(-c4cccnc4)sc3c2)cc1` [Example 4]: the efficacy in series [2] was 100%. Besides, in series [1] (setting [6]), the “LogP[a]” value is 2.91. Further, in series [1] (setting [3]), the “logP[b]” value turned out to be 2.96.
As to `CCSc1ccc(-c2cnc3nc(-c4cccnc4)sc3c2)cc1` [Example 11], the “LogP[a]” value in series [1] (setting [6]) is on record as 3.34. Moreover, the “logP[b]” value in series [1] (setting [3]) was 3.37.
The matching figures for `Cc1cccc(-c2cnc3nc(-c4cccnc4)sc3c2)c1` [Example 3]: 2.91 and 2.95.
For `Fc1ccccc1-c1cnc2nc(-c3cccnc3)sc2c1` [Example 5], in that order: 2.51 and 2.54.
As to `CC[S+]([O-])c1ccc(-c2cnc3nc(-c4ccc[n+]([O-])c4)sc3c2)cc1` (stereo not drawn) [Example 13], the efficacy in series [2] stood at 90%. In addition, the “LogP[a]” value in series [1] (setting [6]) is on record as 1.85. The “logP[b]” value in series [1] (setting [3]) came to 1.85.
Regarding `CC[S+]([O-])c1ccccc1-c1cnc2nc(-c3cccnc3)sc2c1` (stereo not drawn) [Example 15, 6-[2-(Ethylsulphinyl)phenyl]-2-(pyridin-3-yl)[1,3]thiazolo[4,5-b]pyridine], the figures for the chromatographic logP in series [1] (setting [5]) and in series [1] (setting [4]) were 1.58 and 1.59, respectively.
Consider `Clc1ccc(-c2cnc3nc(-c4cccnc4)sc3c2)cc1` [Example 8], for which the “LogP[a]” value in series [1] (setting [6]) amounted to 2.98. The “logP[b]” value in series [1] (setting [3]) was 3.03.
For `Cn1cnn(-c2cnc3nc(-c4cccnc4)sc3c2)c1=S` [Example 29], in that order: 1.00 and 1.07.
With `O=C(Nc1cccc([S+]([O-])C(F)(F)F)c1)c1cnc2nc(-c3cncc(F)c3)sc2c1` (stereo not drawn) [Example 58, 2-(5-Fluoropyridin-3-yl)-N-{3-[(trifluoromethyl)sulphinyl]phenyl}[1,3]thiazolo[4,5-b]pyridine-6-carboxamide], in series [1] (setting [5]), the chromatographic logP came out at 2.54.
On the same count and under the same terms, with `CS(=O)(=O)CCNC(=O)c1cnc2nc(-c3cccnc3)sc2c1` [Example 54, N-[2-(Methylsulphonyl)ethyl]-2-(pyridin-3-yl)[1,3]thiazolo[4,5-b]pyridine-6-carboxamide] the figure was 0.84.
As to `FC(F)(F)c1ccn(-c2cnc3nc(-c4cccnc4)sc3c2)n1` [Example 27], the chromatographic logP in series [1] (setting [4]) came out at 2.57.
For `Clc1cccc(Nc2cnc3nc(-c4cccnc4)sc3c2)c1` [Example 25, N-(3-Chlorophenyl)-2-(pyridin-3-yl)[1,3]thiazolo[4,5-b]pyridin-6-amine], the pest or weed control at 500 g/ha in series [2] turned out to be 90%. Further, the chromatographic logP was determined as 2.66 in series [1] (setting [5]) and 2.69 in series [1] (setting [4]).
For `CC[S+]([O-])c1ccccc1-c1cnc2nc(-c3ccc[n+]([O-])c3)sc2c1` (stereo not drawn) [Example 16, 6-[2-(Ethylsulphinyl)phenyl]-2-(1-oxidopyridin-3-yl)[1,3]thiazolo[4,5-b]pyridine], in that order: 90%, 1.86 and 1.87.
On to `FC(F)(F)c1cnn(-c2cnc3nc(-c4cccnc4)sc3c2)c1` [Example 28], for which the “LogP[a]” value in series [1] (setting [6]) was determined as 2.48. In series [1] (setting [3]), the “logP[b]” value is reported as 2.53.
Take `c1ccc(-c2cnc3nc(-c4cccnc4)sc3c2)cc1` [Example 1]: in series [1] (setting [6]), the “LogP[a]” value turned out to be 2.47. Moreover, in series [1] (setting [3]), the “logP[b]” value stood at 2.56.
For the molecule `CCSc1ccccc1-c1cnc2nc(-c3cccnc3)sc2c1` [Example 14, 6-[2-(Ethylsulphanyl)phenyl]-2-(pyridin-3-yl)[1,3]thiazolo[4,5-b]pyridine], the chromatographic logP in series [1] (setting [5]) worked out at 3.12; in series [1] (setting [4]), 3.13.
`Cc1cc(C)c(-c2cnc3nc(-c4cccnc4)sc3c2)cc1SCC(F)(F)F` [Example 19, 6-{2,4-Dimethyl-5-[(2,2,2-trifluoroethyl)sulphanyl]phenyl}-2-(pyridin-3-yl)[1,3]thiazolo[4,5-b]pyridine]: the pest or weed control at 500 g/ha in series [2] amounted to 100%. Further, the chromatographic logP in series [1] (setting [5]) turned out to be 3.97; in series [1] (setting [4]) it was 3.95.
The matching figures for `Cc1ccccc1-c1cnc2nc(-c3cccnc3)sc2c1` [Example 2, 6-(2-Methylphenyl)-2-(pyridin-3-yl)[1,3]thiazolo[4,5-b]pyridine]: 100%, 2.76 and 2.8.
As to `CC[S+]([O-])c1ccc(-c2cnc3nc(-c4cccnc4)sc3c2)cc1` (stereo not drawn) [Example 12], the “LogP[a]” value in series [1] (setting [6]) was determined as 1.58. Besides, the “logP[b]” value in series [1] (setting [3]) was 1.86.
In series [2], `Cc1ccc(-c2cnc3nc(-c4cccnc4)sc3c2)cc1SCC(F)(F)F` [Example 17] showed an efficacy of 90%. Also, the “LogP[a]” value in series [1] (setting [6]) came out at 3.74. The “logP[b]” value in series [1] (setting [3]) was 3.68.
The matching figures for `Cc1ccc(-c2cnc3nc(-c4cccnc4)sc3c2)cc1[S+]([O-])CC(F)(F)F` (stereo not drawn) [Example 18]: 90%, 2.4 and 2.34.
